One assay has as its system 129.B6-Sac congenic mice. The text has this:
(§1) Preferences for 10% ethanol for the same mouse strains were studied as described in Abstr. of the 23th RSA Meeting (June 2000, Denver, Colo.).

Assay [1] concerns mouse strains with 'B6-like' or '129-like' haplotype of Gpr98.
Source text: as §1

Assay [2] has as its system mice from inbred strains with two different haplotypes of the Sac gene. Conditions: strain preferences known from Lush et al., cited from earlier work.
Setting [3] is: strains with the 129-like haplotype of Sac, p=0.0015 vs B6-like.
Where [4] appears, read: strains with the B6-like haplotype of Sac.

Like-named read-outs stand apart in the source and are kept apart here.

In the case of `CCO` [ethanol], the “consumption of 10% ethanol solution” value came out at 1.50 ± 0.15 mL/day with 129.B6-Sac congenic mice (congenic mice homozygous for the 194-kb donor fragment from the B6 strain) and 1.19 ± 0.11 mL/day with 129.B6-Sac congenic mice (congenic mice without the donor fragment, p<0.05, one-tailed t-test). Also, the “preference for 10% ethanol” value in assay [1] (strains with the '129-like' haplotype, n=10 strains, p<0.05, one-tailed t-test) amounted to 12±2%; in assay [1] (strains with the 'B6-like' haplotype, n=14 strains) it was 20±4%.

For the compound `O=C1NS(=O)(=O)c2ccccc21` [saccharin], the sweetener preference in assay [2] (setting [3]) is recorded as 57±2%; in assay [2] (setting [4]) it was 82±4%.

With `OC[C@H]1O[C@@](CO)(O[C@H]2O[C@H](CO)[C@@H](O)[C@H](O)[C@H]2O)[C@@H](O)[C@@H]1O` [sucrose], the values for the sweetener preference in assay [2] (setting [3]) and in assay [2] (setting [4]) were 54±1% and 86±6%, respectively.

The record behind these values is patent publication US20040081964A1, “Gene and sequence variation associated with sensing carbohydrate compounds and other sweeteners” (priority 2002, published 2004).
